Laboratory results published in patent US20210330611A1, “THERAPY FOR NEUROLOGICAL DISEASES/DISORDERS” (priority 2020, published 2021).
Counter-ions that a name gives are not always drawn. Like-named read-outs stand apart in the source and are kept apart here.

Columns and labels:
[1] = tested on: fibrin-induced microglia activation; assay: Image-based assay of fibrin-induced microglia activation (HTS and dose response); assay type: cell-based, rat; details: for inhibition at 10 µM: Rattus norvegicus, Microglia, read-out: Fibrin % inhibition
[2] = tested on: primary rat microglia;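 as to Fibrin % cell toxicity: share of dead cells sized under 150 µm2 at 10 µM in fibrin-stimulated microglia HTS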
[3] = tested on: primary rat microglia; remark: listed apart in the source;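 as to Fibrin % cell toxicity: share of dead cells sized under 150 µm2 at 10 µM in fibrin-stimulated microglia HTS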
[4] = tested on: LPS-induced microglia activation; assay: Image-based assay of LPS-induced microglia activation (HTS and dose response); assay type: cell-based, rat
[5] = tested on: fibrin- and LPS-induced microglia activation; assay: cells; assay type: cell-based, rat
[6] = Rattus norvegicus, Microglia, 48 h, read-out: LPS % inhibition
[7] = primary microglia HTS, fibrin stimulation, cell size >800 μm2 as marker of activation
[8] = classification by fibrin and LPS inhibition in HTS
[9] = primary microglia HTS, fibrin stimulation, activation = cell size >800 μm2
[10] = Rattus norvegicus, Microglia, 48 h, primary microglia HTS, LPS stimulation, activation = cell size >800 μm2; read-out: LPS % inhibition
[11] = quadrant by fibrin and LPS inhibition in HTS of 1907 compounds
[12] = primary microglia HTS, fibrin stimulation, increased cell size (>800 μm^2) as marker of activation
[13] = Rattus norvegicus, Microglia, 48 h, primary microglia HTS, LPS stimulation; increased cell size (>800 μm^2) as marker of activation; read-out: LPS % inhibition
[14] = Rattus norvegicus, Microglia, 48 h; read-out: LPS % inhibition
[15] = primary microglia HTS, fibrin stimulation, compounds at 10 μM
[16] = quadrant by fibrin and LPS inhibition, HTS at 10 μM
[17] = primary microglia HTS, 10 μM, fibrin-stimulated, cell size >800 μm^2 as marker of activation
[18] = Rattus norvegicus, Microglia, primary microglia HTS, 10 μM, LPS-stimulated, cell size >800 μm^2 as marker of activation; read-out: LPS % inhibition
[19] = HTS of 1907 compounds, quadrant by fibrin and LPS inhibition
[20] = Rattus norvegicus, Microglia, read-out: LPS % inhibition
[21] = Rattus norvegicus, Microglia, primary microglia HTS, LPS stimulation, compounds at 10 μM; read-out: LPS % inhibition

Structure (SMILES) | Quadrant (FIG. 5b) [5] | inhibition at 10 µM [1] [%] | Fibrin % cell toxicity ([2]; rat) [%] | LPS % cell toxicity ([3]; rat) [%] | other results
CO[C@@]12[C@H](COC(N)=O)C3=C(C(=O)C(C)=C(N)C3=O)N1C[C@@H]1N[C@@H]12 [Mitomycin C, Mitomycin] | Q2 |  |  |  | Fibrin % inhibition ([1]; 10 µM): 112%; Fibrin % cell toxicity [2]: 74%; LPS % cell toxicity [3]: 49%; LPS % inhibition ([4]; 10 µM): 110%
CN(C)C(=N)N=C(N)N [Metformin] | Q4 | -15 | 0 | 0 | inhibition at 10 µM [4, 6]: 0%
CN(C)C(=O)C(CCN1CCC(O)(c2ccc(Cl)cc2)CC1)(c1ccccc1)c1ccccc1 [Loperamide] | Q1 | 12 | 1 | 2 | inhibition at 10 µM [4, 6]: 63%
CC(C)CC(N(C)C)C1(c2ccc(Cl)cc2)CCC1 (stereo not drawn) [Sibutramine] |  |  | 1 | 0 | inhibition at 10 µM [1, 7]: -12%; inhibition at 10 µM ([4]; Rattus norvegicus, Microglia, 48 h, primary microglia HTS, LPS stimulation, cell size >800 μm2 as marker of activation; read-out: LPS % inhibition): 8%; Quadrant (FIG. 5b) [5, 8]: Q4
C1CNCCN1 [Piperazine] | Q4 | -3 | 0 | 0 | inhibition at 10 µM [4, 6]: 16%
CC(C)NNC(=O)c1ccncc1 [Iproniazid] |  |  | 1 | 0 | inhibition at 10 µM [1, 9]: -44%; inhibition at 10 µM [4, 10]: 10%; Quadrant (FIG. 5b) [5, 11]: Q4
CCn1cc(C(=O)O)c(=O)c2cc(F)c(N3CCNCC3)cc21 [Norfloxacin] |  |  | 1 | 0 | inhibition at 10 µM [1, 12]: 0%; inhibition at 10 µM [4, 13]: 9%; Quadrant (FIG. 5b) [5, 11]: Q4
CC(=O)O[C@H]1CC[C@@]2(C)C(=CC[C@@H]3[C@@H]2CC[C@]2(C)C(=O)CC[C@@H]32)C1 [Praesterone Acetate, Prasterone Acetate] |  |  |  |  | Fibrin % inhibition [1, 7]: −3%; Fibrin % cell toxicity [2]: 1%; LPS % cell toxicity [3]: 0%; LPS % inhibition [4]: 5%; Quadrant (FIG. 5b) [5, 8]: Q4
Fc1ccc([C@@H]2CCNC[C@H]2COc2ccc3c(c2)OCO3)cc1 [Paroxetine] |  |  | 1 | 0 | inhibition at 10 µM [1, 7]: 38%; inhibition at 10 µM [4, 14]: 15%; Quadrant (FIG. 5b) [5, 8]: Q4
CN(CCOc1ccc(CC2SC(=O)NC2=O)cc1)c1ccccn1 (stereo not drawn) [Rosiglitazone, Rosiglitazone Maleate] | Q4 |  |  |  | Fibrin % inhibition [1]: 5%; Fibrin % cell toxicity [2]: 1%; LPS % cell toxicity [3]: 1%; LPS % inhibition [4]: 20%
Cc1c(C)c2c(c(C)c1O)CCC(C)(CCCC(C)CCCC(C)CCCC(C)C)O2 (stereo not drawn) [Alpha-tochopherol] |  |  |  |  | Fibrin % inhibition [1, 15]: 18%; Fibrin % cell toxicity [2]: 0%; LPS % cell toxicity [3]: 0%; LPS % inhibition ([4]; primary microglia HTS, LPS stimulation, compounds at 10 μM): 21%; Quadrant (FIG. 5b) [5, 16]: Q4
CCCCOCCOCCOCc1cc2c(cc1CCC)OCO2 [Piperonyl Butoxide] | Q4 | 0 | 0 | 0 | inhibition at 10 µM [4, 6]: 12%
CC(C)C(=O)Nc1ccc([N+](=O)[O-])c(C(F)(F)F)c1 [Flutamide] |  |  | 1 | 0 | inhibition at 10 µM [1, 9]: 15%; inhibition at 10 µM [4, 10]: 23%; Quadrant (FIG. 5b) [5, 11]: Q4
Cc1cccc(C)c1OCC(C)N (stereo not drawn) [Mexiletine] | Q4 | 2 | 1 | 0 | inhibition at 10 µM [4, 6]: 13%
Nc1nc(N)c2nc(-c3ccccc3)c(N)nc2n1 [Triamterene] |  |  | 1 | 0 | inhibition at 10 µM [1, 17]: 40%; inhibition at 10 µM [4, 18]: 24%; Quadrant (FIG. 5b) [5, 19]: Q4
O=C1CCC(N2C(=O)c3ccccc3C2=O)C(=O)N1 (stereo not drawn) [Thalidomide] |  |  | 0 | 1 | inhibition at 10 µM [1, 17]: 8%; inhibition at 10 µM [4, 18]: 23%; Quadrant (FIG. 5b) [5, 19]: Q4
CC(CCc1ccccc1)NCC(O)c1ccc(O)c(C(N)=O)c1 (stereo not drawn) [Labetalol] | Q4 | 32 | 1 | 1 | inhibition at 10 µM [4, 6]: 30%

Structure (SMILES) | Quadrant (FIG. 5b) [5] | inhibition at 10 µM [1] [%] | Fibrin % cell toxicity ([2]; rat) [%] | LPS % cell toxicity ([3]; rat) [%] | other results
CN1CCC(=C2c3ccccc3C=Cc3ccccc32)CC1 [Cyproheptadine] | Q4 | 24 | 1 | 1 | inhibition at 10 µM [4, 20]: 43%
CN1CCN(CC/C=C2/c3ccccc3Sc3ccc(S(=O)(=O)N(C)C)cc32)CC1 [Thiothixene] |  |  | 0 | 0 | inhibition at 10 µM [1, 17]: -4%; inhibition at 10 µM [4, 18]: 37%; Quadrant (FIG. 5b) [5, 19]: Q4
CC(=O)c1ccc(S(=O)(=O)NC(=O)NC2CCCCC2)cc1 [Acetohexamide] |  |  | 1 | 0 | inhibition at 10 µM [1, 15]: 12%; inhibition at 10 µM [4, 21]: 14%; Quadrant (FIG. 5b) [5, 16]: Q4
CN(C)CCC=C1c2ccccc2C=Cc2ccccc21 [Cyclobenzaprine] | Q4 | -29 | 0 | 1 | inhibition at 10 µM [4, 20]: 35%
Nc1nc2[nH]cc(CCc3ccc(C(=O)N[C@@H](CCC(=O)O)C(=O)O)cc3)c2c(=O)[nH]1 [Pemetrexed] |  |  | 0 | 0 | inhibition at 10 µM [1, 7]: -8%; inhibition at 10 µM [4, 14]: 9%; Quadrant (FIG. 5b) [5, 8]: Q4
O=c1oc2c(O)c(O)cc3c(=O)oc4c(O)c(O)cc1c4c23 [Ellagic Acid] |  |  | 1 | 0 | inhibition at 10 µM [1, 15]: -5%; inhibition at 10 µM [4, 21]: 24%; Quadrant (FIG. 5b) ([5]; classification by fibrin and LPS inhibition, HTS at 10 μM): Q4
O=C(O)CN1C(=O)c2cccc3cccc(c23)C1=O [Alrestatin] | Q4 | 11 | 1 | 0 | inhibition at 10 µM [4, 20]: 12%
Cc1[nH]c(=O)c(C#N)cc1-c1ccncc1 [Milrinone] |  |  | 0 | 0 | inhibition at 10 µM [1, 12]: 4%; inhibition at 10 µM [4, 13]: 23%; Quadrant (FIG. 5b) [5, 11]: Q4
CNC[C@H](O)c1cccc(O)c1 [Phenylephrine] | Q4 | 38 | 1 | 0 | inhibition at 10 µM [4, 6]: 31%
N[C@@H](Cc1c[nH]c2ccccc12)C(=O)O [Tryptophan] |  |  | 1 | 0 | inhibition at 10 µM [1, 17]: -6%; inhibition at 10 µM [4, 18]: 16%; Quadrant (FIG. 5b) [5, 19]: Q4
Clc1cccc(Cl)c1N=C1NCCN1 [Clonidine] | Q4 | -22 | 1 | 0 | inhibition at 10 µM [4, 20]: 14%
CC1=CC(=O)NS(=O)(=O)O1 [Acesulfame Potassium] | Q4 | -3 | 0 | 0 | inhibition at 10 µM [4, 20]: 16%
CN[C@H](CC(C)C)C(=O)N[C@H]1C(=O)N[C@@H](CC(N)=O)C(=O)N[C@H]2C(=O)N[C@H]3C(=O)N[C@H](C(=O)N[C@H](C(=O)O)c4cc(O)cc(O)c4-c4cc3ccc4O)[C@H](O)c3ccc(c(Cl)c3)Oc3cc2cc(c3O[C@@H]2O[C@H](CO)[C@@H](O)[C@H](O)[C@H]2O[C@H]2C[C@](C)(N)[C@H](O)[C@H](C)O2)Oc2ccc(cc2Cl)[C@H]1O [Vancomycin Hydrochloride] | Q4 |  | 1 | 0 | Fibrin % inhibition ([1]; 10 µM): −20%; LPS % inhibition ([4]; 10 µM): 9%
CC1CCc2c(N3CCC(O)CC3)c(F)cc3c(=O)c(C(=O)O)cn1c23 (stereo not drawn) [Nadifloxacin] |  |  | 1 | 0 | inhibition at 10 µM [1, 12]: -14%; inhibition at 10 µM [4, 13]: 10%; Quadrant (FIG. 5b) [5, 11]: Q4
CCCCNC(=O)NS(=O)(=O)c1ccc(C)cc1 [Tolbutamide] | Q4 | 31 | 1 | 0 | inhibition at 10 µM [4, 20]: 24%
O=C(O)CCCC[C@@H]1SC[C@@H]2NC(=O)N[C@@H]21 [Biotin] | Q4 | 24 | 1 | 0 | inhibition at 10 µM [4, 20]: 12%
